Measurements from PMC7694037, “Quinolizidine-Derived Lucanthone and Amitriptyline Analogues Endowed with Potent Antileishmanial Activity” (Pharmaceuticals, 2020).
≈ marks a conversion by molar mass, not a printed value. Read-outs that look alike come from different tables or passages of the source.

What was measured:
[1] = system: L. infantum promastigotes; test: Antileishmanial activity against L. infantum promastigotes (MTT assay); conditions: for IC50: Leishmania infantum, 72 h, read-out: IC50 L. infantum; for Ratio IC50 Miltef./IC50 Compd. (L. infantum): ratio between IC50 of miltefosine and that of each compound, L. infantum promastigotes
Experimental: (§5) Promastigote stage of L. infantum strain MHOM/TN/80/IPT1 (kindly provided by Dr. M. Gramiccia, ISS, Roma) and L. tropica (MHOM/SY/2012/ISS3130) were cultured in RPMI 1640 medium (EuroClone) supplemented with 10% heat-inactivated fetal calf serum (EuroClone, Milan Italy), 20 mM Hepes and 2 mM L-glutamine at 24 °C. […] Compounds were dissolved in DMSO and then diluted with medium to achieve the required concentrations. Drugs were placed in 96 wells round-bottom microplates and seven serial dilutions made. Miltefosine was used as reference anti-Leishmania drug. Parasites were diluted in complete medium to 5 × 10^6 parasites/mL and 100 μL of the suspension was seeded into the plates, incubated at 24 °C for 72 h and then 20 µL of MTT solution (5 mg/mL) was added into each well for 3 h. The plates were then centrifuged, the supernatants were discarded and the resulting pellets were dissolved in 100 µL of lysing buffer consisting of 20% (w/v) of a solution of SDS (Sigma), 40% DMF (Merck, Milan Italy) in H2O. The absorbance was measured spectrophotometrically at a test wavelength of 550 nm and a reference wavelength of 650 nm.

[2] = system: Leishmania tropica promastigotes; test: Antileishmanial activity against L. tropica promastigotes (MTT assay); conditions: for IC50: 72 h, IC50 ± SD; for Ratio IC50 Miltef./IC50 Compd. (L. tropica): ratio between IC50 of miltefosine and that of each compound, L. tropica promastigotes
Experimental: as §5

[3] = Cytotoxicity against Vero-76 cells (crystal violet staining); assay type: cell-based, Cercopithecus Aethiops; conditions: Cercopithecus aethiops (African green monkey)
Experimental: (§1) The cytotoxicity of lucanthone was also tested for comparison. […] The relevant selectivity index (SI)—a parameter that quantifies the preferential antileishmanial activity of a compound in relation to mammalian cell toxicity (CC50/IC50)—is tabulated in Table 2. […] The replacement of the 4-methyl substituent with an amino group in compound 14, while preserving good antileishmanial activity, led to a further substantial decrease of cytotoxicity, with a resultantly safer profile (SI = 16.2 and 16.9 for the two Leishmania species).
(§2) Vero-76 cells (ATCC CRL 1587 Cercopithecus Aethiops) were seeded at an initial density of 4 × 10^5 cells/mL in 24-well plates, in culture medium (Dulbecco’s modified eagle’s medium (D-MEM) with L-glutamine, supplemented with fetal bovine serum (FBS), 0.025 g/L kanamycin). Cell cultures were then incubated at 37 °C in a humidified, 5% CO2 atmosphere in the absence or presence of serial dilutions of test compounds. Cell viability was determined after 48–96 h at 37 °C by the Crystal violet staining method. The results are expressed as CC50, which is the concentration of compound necessary to inhibit cell growth by 50%. Each CC50 value is the mean and standard deviation of at least three separate experiments performed in duplicate.

Vero-76 cells = test: as above; assay type: cell-based, Cercopithecus Aethiops; conditions: for S.I. L. tropica: CC50 Vero-76 / IC50 L. tropica promastigotes; for S.I. L. infantum: CC50 Vero-76 / IC50 L. infantum promastigotes; for selectivity index (SI), range over both Leishmania species: Vero-76 cells vs L. tropica and L. infantum promastigotes
Experimental: as §1, §2

[4] = system: Mycobacterium tuberculosis; design: method as in PMID 3653383; conditions: cited from earlier work
PMA-differentiated THP-1 = test: Cytotoxicity against PMA-differentiated THP-1 cells (MTT); assay type: cell-based, human; conditions: CC50 THP-1 / IC50 L. infantum amastigotes
Experimental: (§3) The cytotoxic concentration (CC50) against THP-1 differentiated into macrophages (Table 3), used for testing the activity against the amastigote stage, is also reported.
(§4) THP-1 cells were plated at 5 × 10^5 cells/mL in 96 wells flat bottom microplates and treated with 0.1 µM PMA for 48 h to achieve differentiation into macrophages. Cells were then treated with serial dilutions of test compounds and cell proliferation evaluated using the MTT assay described for promastigotes.

[5] = as above; assay type: cell-based, human; conditions: human
Experimental: as §3, §4

[6] = cited from earlier work
Staphylococcus aureus = system: Staphylococcus aureus; design: method as in PMID 3653383; conditions: cited from earlier work
[7] = system: intramacrophagic amastigotes of L. infantum; test: Intracellular amastigote susceptibility assay in PMA-differentiated THP-1 macrophages; assay type: cell-based; conditions: Leishmania infantum; intramacrophagic amastigotes in THP-1 macrophages, 72 h; mean ± SD; read-out: L. infantum Amastigotes IC50
Experimental: Finally, for a better idea of their real value as antileishmanial agents, compounds 14 and 17, displaying the most promising activity against promastigote stage and the highest SI values, together with lucanthone and the corresponding quinolizidine analog 1, were tested against the intramacrophagic amastigote stage of L. infantum.
THP-1 cells (human acute monocytic leukemia) were maintained in RPMI supplemented with 10% FBS (EuroClone), 50 µM 2-mercaptoethanol, 20 mM Hepes and 2 mM glutamine, at 37 °C in 5% CO2. For Leishmania infections, THP-1 cells were plated at 5 × 10^5 cells/mL in 16-chamber Lab-Tek culture slides (Nunc, Milan, Italy) and treated with 0.1 µM phorbol myristate acetate (PMA, Sigma) for 48 h to achieve differentiation into macrophages. Cells were washed and infected with metacyclic L. infantum promastigotes at a macrophage/promastigote ratio of 1/10 for 24 h. Cell monolayers were then washed and incubated in the presence of test compounds for 72 h. Slides were fixed with methanol and stained with Giemsa. The percentages of infected macrophages among treated and non-treated cells were determined by light microscopy.

Bacillus subtilis = system: Bacillus subtilis; design: method as in PMID 3653383; conditions: cited from earlier work
[8] = system: Mycobacterium tuberculosis H37Ra; design: method as in PMID 3653383; conditions: cited from earlier work
[9] = system: choline uptake into rat brain synaptosomes; design: method as in PMID 6124978; conditions: 1 µM concentration; cited from earlier work
[10] = Leishmania tropica, read-out: IC50 L. tropica, promastigotes, MTT, 72 h

Compound | IC50 [1] | Ratio IC50 Miltef./IC50 Compd. (L. infantum) [1] | IC50 [2, 10] | Ratio IC50 Miltef./IC50 Compd. (L. tropica) [2] | CC50 [3] | S.I. L. tropica (Vero-76 cells) | SI (THP-1) (PMA-differentiated THP-1) | CC50 [5] | IC50 [7] | further results
Cc1ccc(NCCCC2CCCN3CCCCC23)c2c(=O)c3ccccc3sc12 (stereo not drawn) [Compound 3] | 17.2 ± 1.31 µM | 1.8 | 8.89 ± 3.02 µM | 4.87 | – | – | – | – | – | –
Nc1ccc(NCC2CCCN3CCCCC23)c2c(=O)c3ccccc3sc12 (stereo not drawn) [Compound 13] | 5.23 ± 1.83 µM | 6.0 | 2.87 ± 0.43 µM | 15.1 | – | – | – | – | – | –
Cc1ccc(NC[C@@H]2CCCN3CCCC[C@H]23)c2c(=O)c3ccccc3sc12 [Compound 1] | 3.87 ± 1.53 µM | 8.1 | 3.36 ± 1.53 µM | 12.9 | 23.5 ± 1.8 µM | 7.0 | 8.0 | 28 ± 8 µM | 3.49 ± 0.18 µM | MIC Mycobacterium tuberculosis [4]: 1.25 µg/mL; MIC Mycobacterium tuberculosis ([4]; converted from µg/mL): 3.32 µM; mortality ([6]; i.p., doses up to 200–350 mg/kg, once a day for five consecutive days, mice inoculated with leukemia P388 cells): no mortality; MIC Staphylococcus aureus (Staphylococcus aureus): 2.5 µg/mL; MIC Staphylococcus aureus (Staphylococcus aureus; converted from µg/mL): 6.63 µM; MIC Bacillus subtilis (Bacillus subtilis): 2.5 µg/mL; MIC Bacillus subtilis (Bacillus subtilis; converted from µg/mL): 6.63 µM
C(=C1c2ccccc2-c2ccccc21)[C@@H]1CCCN2CCCC[C@H]12 [Compound 17, 9-(quinolizidinylmethylidene)fluorene] | 4.35 ± 0.37 µM | 7.2 | 3.5 µM | 12.4 | 83.4 ± 3 µM | 23.9 | 20.0 | 53.9 ± 3.98 µM | 2.7 ± 0.68 µM | S.I. L. infantum (Vero-76 cells): 19.2; selectivity index (SI), range over both Leishmania species (Vero-76 cells): 16–24; MIC Mycobacterium tuberculosis H37Ra [8]: 0.49 µM (≈ 0.155 µg/mL); IC50 ([2]; read-out: IC50 L. tropica, promastigotes, MTT): 3.49 ± 1.02 µM
Nc1ccc(NCCCC2CCCN3CCCCC23)c2c(=O)c3ccccc3sc12 (stereo not drawn) [Compound 15] | 4.22 ± 1.95 µM | 7.4 | 3.72 ± 1.66 µM | 11.6 | – | – | – | – | – | –
Cc1ccc(NCC2CCCN3CCCCC23)c2c(=O)c3ccccc3oc12 (stereo not drawn) [Compound 16] | 8.23 ± 1.51 µM | 3.8 | 6.56 ± 3.08 µM | 6.6 | – | – | – | – | – | –
Nc1ccc(NCCC2CCCN3CCCCC23)c2c(=O)c3ccccc3sc12 (stereo not drawn) [Compound 14, 4-amino-1-(quinolizidinylethyl)aminothioxanthen-9-one] | 3.63 ± 0.78 µM | 8.6 | 3.8 ± 1.82 µM | 11.4 | 61.4 ± 2.6 µM | 16.2 | 10.2 | 21.7 ± 8.83 µM | 2.13 ± 1.35 µM | S.I. L. infantum (Vero-76 cells): 16.9; selectivity index (SI), range over both Leishmania species (Vero-76 cells): 16–24; mortality ([6]; mouse, in vivo, 260 mg/kg): no mortality
NNC(=O)c1ccncc1 [isoniazide, reference compound] | – | – | – | – | – | – | – | – | – | MIC Mycobacterium tuberculosis H37Ra [8]: 0.14 to 0.28 µM
O=c1c2ccccc2sc2c([N+](=O)[O-])ccc(NCC3CCCN4CCCCC34)c12 (stereo not drawn) [Compound 8] | 38.7 ± 7.67 µM | 0.8 | 19.2 ± 9.33 µM | 2.25 | – | – | – | – | – | –
CN(C)CCC=C1c2ccccc2CCc2ccccc21 [Amitriptyline] | – | – | – | – | – | – | – | – | – | inhibition of choline uptake into rat brain synaptosomes [9]: completely ineffective
